In patent publication US20130197085A1, “AGENT AND METHOD FOR STABILIZING MEMBRANE PROTEIN” (priority 2007, published 2013):

Biological target: T1, BSEP expressing on canalicular membrane (Rattus norvegicus, UniProt O70127)
T1 construct: from tissue; host or cells: liver of male SD rats: in vivo for A27, canalicular membrane vesicles for A28 and A29
T1 sequence (O70127 1-1321): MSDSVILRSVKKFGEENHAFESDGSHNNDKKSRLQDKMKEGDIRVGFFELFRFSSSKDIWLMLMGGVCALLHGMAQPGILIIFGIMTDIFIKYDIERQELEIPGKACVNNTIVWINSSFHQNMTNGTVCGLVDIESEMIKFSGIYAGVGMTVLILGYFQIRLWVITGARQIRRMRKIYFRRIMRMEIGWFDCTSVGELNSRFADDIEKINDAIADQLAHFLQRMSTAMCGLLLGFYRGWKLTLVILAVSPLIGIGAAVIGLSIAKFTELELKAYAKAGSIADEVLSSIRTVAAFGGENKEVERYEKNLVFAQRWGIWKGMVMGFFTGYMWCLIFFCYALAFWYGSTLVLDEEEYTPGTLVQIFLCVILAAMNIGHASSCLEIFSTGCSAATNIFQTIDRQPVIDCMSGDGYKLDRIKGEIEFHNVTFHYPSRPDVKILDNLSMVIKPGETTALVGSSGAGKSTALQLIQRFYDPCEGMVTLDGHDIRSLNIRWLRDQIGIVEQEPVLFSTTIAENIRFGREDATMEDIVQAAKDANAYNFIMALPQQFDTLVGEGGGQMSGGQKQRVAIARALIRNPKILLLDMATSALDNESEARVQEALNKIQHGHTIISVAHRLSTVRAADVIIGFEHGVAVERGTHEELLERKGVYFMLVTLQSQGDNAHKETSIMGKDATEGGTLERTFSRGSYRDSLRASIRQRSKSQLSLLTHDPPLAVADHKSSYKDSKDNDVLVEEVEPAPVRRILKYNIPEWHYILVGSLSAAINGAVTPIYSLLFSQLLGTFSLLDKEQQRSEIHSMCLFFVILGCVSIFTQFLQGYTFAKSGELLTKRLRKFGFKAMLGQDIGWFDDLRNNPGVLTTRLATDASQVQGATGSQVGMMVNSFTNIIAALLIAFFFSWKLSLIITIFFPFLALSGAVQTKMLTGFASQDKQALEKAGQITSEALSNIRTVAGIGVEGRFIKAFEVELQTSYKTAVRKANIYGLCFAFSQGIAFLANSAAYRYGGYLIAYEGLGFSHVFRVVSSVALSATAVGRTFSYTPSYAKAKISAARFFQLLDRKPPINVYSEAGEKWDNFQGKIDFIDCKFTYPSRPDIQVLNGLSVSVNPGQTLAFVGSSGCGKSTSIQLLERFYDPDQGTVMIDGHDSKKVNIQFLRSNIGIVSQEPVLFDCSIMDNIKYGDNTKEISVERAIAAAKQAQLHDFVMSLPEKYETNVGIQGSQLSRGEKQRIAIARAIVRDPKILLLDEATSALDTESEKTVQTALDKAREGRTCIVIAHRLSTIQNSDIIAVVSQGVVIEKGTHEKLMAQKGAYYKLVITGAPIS
Assay: [^3H] TC injection experiment in vivo with pharmacokinetic analysis
Set-up: species or system SD rat
Settings: for CLbile, liver / CLbile, plasma / CLtotal / Css, liver / Css, plasma: [^3H] TC, mean ± standard error
Protocol: Male SD rats (6- to 7-week-old) were purchased from Nippon SLC. All the animals were bred under day-night reversal conditions. They were treated under standard conditions based on the protection of animals. Feed and water were given without any limitation.
It is to be noted that the present study was carried out in accordance with the guidelines determined by the animal experiment committee in the university. 4PBA or a vehicle was given to each SD rat via a tube, for a certain period of time (5, 10, and 15 days), at various doses ([…]). After completion of the 4PBA treatment, a [^3H] TC injection experiment was carried out in vivo (see Hirano et al., Mol Pharmacol 68: 800-807. 2005). [^3H] TC dissolved in a normal saline was injected into each rat, via a cannula inserted into the femoral vein thereof, at a rate of 70 ng/min/kg for 90 minutes. Blood and bile were collected for a certain period of time. Radioactivity in plasma, bile, and liver was measured.
The total clearance of plasma (CLtotal) the clearance of bile standardized with circulating plasma (CLbile, plasma), and the clearance of bile standardized with the concentration in the liver (CLbile, liver) were calculated using the following formulae:
CLbile, plasma=Vss, bile/Css, plasma; and
CLbile, liver=Vss, bile/Css, liver
(wherein “I,” “Css, plasma,” Vss, bile” and “Css, and liver” represent, respectively, an injection rate (ng/min/kg), a plasma concentration in a steady state ([…]), a bile elimination rate in a steady state (ng/min/kg), and a mean liver concentration (ng/ml)). The plasma concentration in a steady state (Css, plasma) indicates the mean value of plasma [^3H] TC concentrations at time points of 15, 30, 60, and 90 minutes. The bile elimination rate (Vss, bile) indicates the mean value of the bile elimination rates of [^3H] TC at time points of 10-15 minutes, 25-30 minutes, 55-60 minutes, and 85-90 minutes. The mean liver concentration (Css, liver) indicates the mean value of liver [^3H] TC concentrations at the termination of the in vivo experiment.

[1] = 4PBA (0.2 g/kg/day), N = 3, SD rats
[2] = 4PBA (0.6 g/kg/day), N = 9, SD rats
[3] = 4PBA (2.4 g/kg/day), N = 3, SD rats

O=C(O)CCCc1ccccc1 [4PBA, 4-phenylbutyric acid]
CLbile, liver with respect to [^3H] TC, greater than vehicle-treated rats (0.6 k/kg/day for 10 days): 2 times | CLbile, plasma with respect to [^3H] TC, 4PBA-treated vs vehicle-treated SD rats (0.6 k/kg/day for 10 days): no significant difference | CLtotal with respect to [^3H] TC, 4PBA-treated vs vehicle-treated SD rats (0.6 k/kg/day for 10 days): no significant difference | Css, liver of [^3H] TC as fraction of that in vehicle-treated SD rats (0.6 k/kg/day for 10 days): ½ | Css, plasma of [^3H] TC, 4PBA-treated vs vehicle-treated SD rats (0.6 k/kg/day for 10 days): no significant difference | Vss, bile of [^3H] TC, 4PBA-treated vs vehicle-treated SD rats (0.6 k/kg/day for 10 days): no significant difference | CLbile, liver [1]: 19.0 ± 3.9 mL/min/kg | CLbile, plasma [1]: 26.3 ± 2.0 mL/min/kg | CLtotal [1]: 26.6 ± 3.8 mL/min/kg | Css, liver [1]: 3.8 ± 0.7 ng/mL | Css, plasma [1]: 2.6 ± 0.2 ng/mL | CLbile, liver [2]: 29.3 ± 6.1 mL/min/kg | CLbile, plasma [2]: 32.3 ± 2.9 mL/min/kg | CLtotal [2]: 30.7 ± 3.7 mL/min/kg | Css, liver [2]: 2.6 ± 0.5 ng/mL | Css, plasma [2]: 2.0 ± 0.2 ng/mL | CLbile, liver [3]: 19.2 ± 3.2 mL/min/kg | CLbile, plasma [3]: 23.9 ± 4.7 mL/min/kg | CLtotal [3]: 29.6 ± 3.5 mL/min/kg | Css, liver [3]: 5.9 ± 1.8 ng/mL | Css, plasma [3]: 3.3 ± 0.7 ng/mL | CLbile, liver (4PBA (5 days), N = 6, SD rats): 21.7 ± 3.0 mL/min/kg | CLbile, plasma (4PBA (5 days), N = 6, SD rats): 32.3 ± 8.5 mL/min/kg | CLtotal (4PBA (5 days), N = 6, SD rats): 26.6 ± 3.8 mL/min/kg | Css, liver (4PBA (5 days), N = 6, SD rats): 3.1 ± 0.5 ng/mL | Css, plasma (4PBA (5 days), N = 6, SD rats): 2.3 ± 0.3 ng/mL | CLbile, liver (4PBA (10 days), N = 9, SD rats): 29.3 ± 6.1 mL/min/kg | CLbile, plasma (4PBA (10 days), N = 9, SD rats): 32.3 ± 2.9 mL/min/kg | CLtotal (4PBA (10 days), N = 9, SD rats): 30.7 ± 3.7 mL/min/kg | Css, liver (4PBA (10 days), N = 9, SD rats): 2.6 ± 0.5 ng/mL | Css, plasma (4PBA (10 days), N = 9, SD rats): 2.0 ± 0.2 ng/mL | CLbile, liver (4PBA (15 days), N = 3, SD rats): 29.9 ± 1.5 mL/min/kg | CLbile, plasma (4PBA (15 days), N = 3, SD rats): 33.2 ± 2.0 mL/min/kg | CLtotal (4PBA (15 days), N = 3, SD rats): 27.5 ± 2.7 mL/min/kg | Css, liver (4PBA (15 days), N = 3, SD rats): 2.3 ± 0.2 ng/mL | Css, plasma (4PBA (15 days), N = 3, SD rats): 2.1 ± 0.2 ng/mL | side effects (SD rats, under all conditions (various times and doses)): No clear side effects were recognized
